ChEMBL document CHEMBL1156251, “Structure--activity relationships of polymyxin antibiotics” (J Med Chem, 2010)
Values after ≈ are worked out from the molar mass of the structure shown. *1 amine or outer side, *2 acyl side, *3 side chain or, on linkers, in order; H or OH if unused. Where a SMILES comes first, the peptide text is derived from it. Bridges are numbered along the chain shown (N, C = ends). [ ]: non-standard residue; d: D form. The star is where a group is joined. X1 = NC(=O)[C@@H](CS[*:2])C(=O)[*:1]; X2 = CC[C@H](C)[C@H](NO*)C(=O)O; Heptanoyl = CCCCCCC(=O)*; Octanoyl = CCCCCCCC(=O)*; Dab = NCC[C@H](N)C(=O)O

Experiments:
[1] = tested on: Pseudomonas aeruginosa; assay: Antimicrobial activity against Pseudomonas aeruginosa; format: functional, organism-based
[2] = tested on: Escherichia coli; assay: Antimicrobial activity against Escherichia coli; format: functional
[3] = tested on: Salmonella enterica; assay: Antimicrobial activity against Salmonella enterica; format: functional
[4] = molecular target: Lipopolysaccharide (LPS); assay: Displacement of dansyl-PMB from LPS by isothermal titration calorimetry

Compound | MIC [1] [µM] | MIC [2] [µM] | MIC [3] | IC50 [4] | Ka [4]
CCCCCCCC(=O)N[C@@H](CCN)C(=O)N[C@H](C(=O)N[C@@H](CCN)C(=O)N[C@H]1CCNC(=O)[C@H]([C@@H](C)O)NC(=O)[C@H](CCN)NC(=O)[C@H](CCN)NC(=O)CNC(=O)CNC(=O)[C@H](CCN)NC1=O)[C@@H](C)O (Octanoyl-[Dab]T[Dab][Dab][Dab]GG[Dab][Dab]T; lactam 4-C) | ≥ 512 | 256 (≈ 267 µg/mL) | ≥ 512 µM | 20 µM | 
CCCCCCC(=O)N[C@@H](CCN)C(=O)N[C@H](C(=O)N[C@@H](CCN)C(=O)N[C@H]1CCNC(=O)[C@H]([C@@H](C)O)NC(=O)[C@H](CCN)NC(=O)[C@H](CCN)NC(=O)[C@H](CC(C)C)NC(=O)[C@@H](Cc2ccccc2)NC(=O)[C@H](CCN)NC1=O)[C@@H](C)O [POLYMYXIN B4] (Heptanoyl-[Dab]T[Dab][Dab][Dab][dF]L[Dab][Dab]T; lactam 4-C) | 0.5 (≈ 0.588 µg/mL) | 0.5 (≈ 0.588 µg/mL) | 0.5 µM | 10 µM | 
CCCCCCCC(=O)N[C@@H](CCN)C(=O)N[C@H](C(=O)N[C@@H](CCN)C(=O)N[C@H]1CCNC(=O)[C@H]([C@@H](C)O)NC(=O)[C@H](C)NC(=O)[C@H](CCN)NC(=O)[C@H](CC(C)C)NC(=O)[C@@H](Cc2ccccc2)NC(=O)[C@H](CCN)NC1=O)[C@@H](C)O (Octanoyl-[Dab]T[Dab][Dab][Dab][dF]L[Dab]AT; lactam 4-C) | 2 (≈ 2.32 µg/mL) | 4 (≈ 4.64 µg/mL) | 4 µM | 19 µM | 
CCCCCCCC(=O)N[C@@H](CCN)C(=O)N[C@H]1CCNC(=O)[C@H]([C@@H](C)O)NC(=O)[C@H](CCN)NC(=O)[C@H](CCN)NC(=O)[C@H](CC(C)C)NC(=O)[C@@H](Cc2ccccc2)NC(=O)[C@H](CCN)NC1=O | 8 (≈ 7.91 µg/mL) | 16 (≈ 15.8 µg/mL) | 16 µM | 14 µM | 
CC(C)C[C@@H]1NC(=O)[C@@H](Cc2ccccc2)NC(=O)[C@H](CCN)NC(=O)[C@@H](NC(=O)[C@H](CCN)NC(=O)[C@@H](NC(=O)[C@H](Cc2ccccc2)NC(=O)O)[C@@H](C)O)CCNC(=O)[C@H]([C@@H](C)O)NC(=O)[C@H](CCN)NC(=O)[C@H](CCN)NC1=O [DESFA-[PHE1]POLYMYXIN B] | 16 (≈ 18.5 µg/mL) | 8 (≈ 9.23 µg/mL) | 8 µM | >= 32 nmol/ml | 
CCCCCCCC(=O)N[C@@H](CCN)C(=O)N[C@H](C(=O)N[C@@H](CCN)C(=O)N[C@H]1CCNC(=O)[C@H]([C@@H](C)O)NC(=O)[C@H](CCN)NC(=O)[C@H](CCNC(C)=O)NC(=O)[C@H](CC(C)C)NC(=O)[C@@H](Cc2ccccc2)NC(=O)[C@H](CCN)NC1=O)[C@@H](C)O | 2 (≈ 2.46 µg/mL) | 2 (≈ 2.46 µg/mL) | 4 µM | 26 µM | 
CCCCCCCC(=O)N[C@@H](CCN)C(=O)N[C@H](C(=O)N[C@@H](CCN)C(=O)N[C@H]1CCNC(=O)[C@H]([C@@H](C)O)NC(=O)[C@H](CCN)NC(=O)[C@H](CCN)NC(=O)[C@H](Cc2c[nH]c3ccccc23)NC(=O)[C@@H](Cc2ccccc2)NC(=O)[C@H](CCN)NC1=O)[C@@H](C)O | 2 (≈ 2.53 µg/mL) | 2 (≈ 2.53 µg/mL) | 2 µM | 5 µM | 
CCCCCCCC(=O)N[C@@H](CCN)C(=O)N[C@H](C(=O)N[C@@H](CCN)C(=O)N[C@H]1CCNC(=O)[C@H](C)NC(=O)[C@H](CCN)NC(=O)[C@H](CCN)NC(=O)[C@H](CC(C)C)NC(=O)[C@@H](Cc2ccccc2)NC(=O)[C@H](CCN)NC1=O)[C@@H](C)O (Octanoyl-[Dab]T[Dab][Dab][Dab][dF]L[Dab][Dab]A; lactam 4-C) | 1 (≈ 1.16 µg/mL) | 2 (≈ 2.32 µg/mL) | 1 µM | 5 µM | 
CCCCCCCC(=O)N[C@@H](CCN)C(=O)N[C@H](C(=O)N[C@@H](CCN)C(=O)N[C@H]1CCNC(=O)[C@H]([C@@H](C)O)NC(=O)[C@H](CCN)NC(=O)[C@H](CCN)NC(=O)[C@H](C)NC(=O)[C@@H](Cc2ccccc2)NC(=O)[C@H](CCN)NC1=O)[C@@H](C)O | 1 (≈ 1.15 µg/mL) | 1 (≈ 1.15 µg/mL) | 1 µM | 5 µM | 
CCCCCCCC(=O)N[C@H]1CCNC(=O)[C@H]([C@@H](C)O)NC(=O)[C@H](CCN)NC(=O)[C@H](CCN)NC(=O)[C@H](CC(C)C)NC(=O)[C@@H](Cc2ccccc2)NC(=O)[C@H](CCN)NC1=O | 128 (≈ 114 µg/mL) | 128 (≈ 114 µg/mL) | 128 µM | 30 µM | 
CC[C@H](C)[C@H](NOC(=O)[C@H](CCCCN)NC(=O)CNC(=O)[C@@H](NC(=O)[C@H](CCCCN)NC(=O)[C@@H]1CSSC[C@H](C(N)=O)C(=O)N[C@@H](CCCCN)C(=O)N[C@@H](Cc2ccccc2)C(=O)N[C@@H](CC(C)C)C(=O)N[C@@H](CCCCN)C(=O)N[C@@H](CCCCN)C(=O)N1)[C@@H](C)O)C(=O)O (KFLKKCKTGK-X2; linker N-6 via X1) |  |  | > 1000 µg/mL |  | 0.29 10^7/M
CC(C)C[C@@H]1NC(=O)[C@H](Cc2ccccc2)NC(=O)[C@H](CCCCN)NC(=O)[C@@H](C(N)=O)CSSC[C@@H](C(=O)N[C@@H](CCCCN)C(=O)N[C@H](C(=O)NCC(=O)N[C@@H](CCCCN)C(=O)O)[C@@H](C)O)NC(=O)[C@H](CCCCN)NC(=O)[C@H](CCCCN)NC1=O (KFLKKCKTGK-OH; linker N-6 via X1) |  |  | > 1000 µg/mL |  | 0.56 10^7/M
